{"source": "paper PMC10544015", "about": "(Journal of Medicinal Chemistry, 2023)", "key": {"[1]": {"test": "In vitro proteolytic stability in human plasma", "assay_type": "in vitro ADME", "procedure": "The proteolytic stability of the peptides was determined through in vitro stability assays in human plasma, as previously reported.[31],[89] Briefly, a stock solution of the peptide was prepared at a concentration of 1–2 mm in Milli-Q water and was used for further dilutions. Prior to the actual stability testing, the selectivity of the assay and stability of the working solutions were evaluated in parallel with an assessment of the linearity, accuracy, and precision of the method using three separately prepared calibration curves. The samples were analyzed by RP-HPLC on an Agilent 1200 series gradient HPLC system in combination with an EC HPLC column EC 150/2 NUCLEODUR (C18 HTec, 3 μm length: 150 mm, ID: 2 mm. Macherey-Nagel). The half-lives of the peptides were calculated by interpolating the data based on the obtained calibration curve. Afterward, the log concentrations as a function of time were transferred to a semi-log chart. Metabolites were identified by reanalyzing the samples using LC-MS on the same system previously described.[31]"}, "[2]": {"test": "circular dichroism", "settings": "PBS (10 mM phosphate, 137 mM NaCl, 2.7 mM KCl); pH 7.4; rt °C; 100 uM"}, "[3]": {"system": "B16-BL6 cells", "test": "LDH cytotoxicity assay in B16-BL6 cells", "assay_type": "cell-based, mouse", "settings": "peptides 100 to 6.25 µM, Pbn 2.5 mM, HOS solution"}, "[4]": {"biological_target": "T1, Panx1 channels (Homo sapiens, UniProt Q96RD7)", "T1 construct": "host or cells: EA.hy926 human endothelial cells", "T1 sequence (Q96RD7 whole entry)": "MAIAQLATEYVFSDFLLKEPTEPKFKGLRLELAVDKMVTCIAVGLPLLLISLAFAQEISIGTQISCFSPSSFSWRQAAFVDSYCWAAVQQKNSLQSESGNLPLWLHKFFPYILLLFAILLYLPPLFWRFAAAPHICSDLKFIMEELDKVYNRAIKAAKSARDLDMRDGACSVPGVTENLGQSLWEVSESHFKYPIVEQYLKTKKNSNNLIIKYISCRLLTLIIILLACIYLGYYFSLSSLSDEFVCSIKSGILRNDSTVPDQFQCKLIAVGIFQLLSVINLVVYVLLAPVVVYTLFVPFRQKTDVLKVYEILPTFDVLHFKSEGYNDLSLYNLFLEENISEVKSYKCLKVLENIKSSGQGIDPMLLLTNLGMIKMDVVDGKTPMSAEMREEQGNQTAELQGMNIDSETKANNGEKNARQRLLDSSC", "test": "HOS-induced ATP release assay in EA.hy926 endothelial cells", "assay_type": "cell-based", "settings": "for inhibition at 100 µM: EA.hy 926, read-out: % ATP release inhibition at 100µM (in EA.hy926 cells)", "procedure": "Similar to B16-BL6 cells, a 2–3-fold enhancement of ATP release from EA.hy926 cells was observed upon HOS stimulation (Figure 7E). However, the absolute levels of ATP release were lower in these endothelial cells (around 300 vs 500–600 nM in B16-BL6 cells). As expected, Pbn reduced HOS-induced ATP release from EA.hy926 cells, albeit by a lower fraction than the one observed in B16-BL6 cells (Figure 7E vs7A). The reason for this different efficacy of Pbn is unknown but may be due to its nonspecific action on other ATP release channels or transporters,[68] of which the expression naturally varies among different cell types. […] The water-soluble double-stapled ^10Panx1 peptidomimetic SBL-PX1-206 reduced HOS-induced ATP release from EA.hy926 cells by about 25% at 12.5 μM. […] Stapled and double-stapled ^10Panx1 analogues were also not cytotoxic when tested at 100 and 12.5 μM in EA.hy926 cells (Supporting Information, Figure S8).\n(§1) Triplicates were performed for each independent experiment."}, "[5]": {"biological_target": "T2, Panx1 channels (Mus musculus, UniProt Q9JIP4)", "T2 sequence (Q9JIP4 whole entry)": "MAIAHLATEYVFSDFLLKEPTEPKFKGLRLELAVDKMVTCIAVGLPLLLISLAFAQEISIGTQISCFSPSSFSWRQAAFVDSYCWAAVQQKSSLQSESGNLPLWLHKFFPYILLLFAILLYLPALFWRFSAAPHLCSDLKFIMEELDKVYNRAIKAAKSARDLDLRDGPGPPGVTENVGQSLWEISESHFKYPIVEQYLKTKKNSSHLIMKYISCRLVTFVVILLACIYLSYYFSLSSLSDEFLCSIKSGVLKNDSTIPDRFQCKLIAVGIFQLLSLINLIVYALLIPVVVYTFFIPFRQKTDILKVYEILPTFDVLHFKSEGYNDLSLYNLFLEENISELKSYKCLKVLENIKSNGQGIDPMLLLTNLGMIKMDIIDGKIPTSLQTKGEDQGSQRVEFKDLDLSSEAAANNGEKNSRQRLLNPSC", "test": "Yo-Pro-1 dye uptake assay in B16-BL6 cells", "assay_type": "cell-based", "settings": "for decrease of HOS-induced Yo-Pro-1 uptake: 100 µM, 30 min HOS", "procedure": "The ability of the two previously identified lead compounds, SBL-PX1–42 and SBL-PX1-44, to affect the cellular uptake of ions and small molecules through Panx1 channels was evaluated in Yo-Pro-1 uptake assays. Yo-Pro-1 is a small fluorescent dye of 629 Da able to diffuse into cells through open Panx1 channels and emit green fluorescence when binding to nucleic acids in the cells.[66],[67] A representative example showing Yo-Pro-1 uptake over time is given in the Supporting Information (Figure S4). As expected, HOS induced a rapid Yo-Pro-1 uptake, which continued to increase gradually over time. […] While a small nonsignificant inhibition (14%) of Yo-Pro-1 uptake was observed when cells were exposed to 100 μM of ^10Panx1, the same concentration of the SBL-PX1-42 or SBL-PX1-44 analogues decreased Yo-Pro-1 uptake by 26 and 27%, respectively (Figure 3E). […] Among other possibilities, the reduced efficacy of the peptidomimetics in Yo-Pro-1 uptake assays, as compared to ATP release assays, may be attributed to the difference in size between ATP and Yo-Pro-1 or to the different repartition of charges in the two molecules.\nB16-BL6 cells were plated on 96-well plates and grown until confluency. […] Cells were then incubated in the HOS solution containing the aforementioned compounds. Yo-Pro-1 (5 μM, Life Technologies) was added to the cells, and fluorescence was continuously recorded for 30 min with FDSS/μCELL Functional Drug Screening System (Hamamatsu Photonics). Yo-Pro-1 uptake in each condition was expressed as a percentage of HOS-induced Yo-Pro-1 uptake. […] Triplicates were performed for each independent experiment."}, "[6]": {"biological_target": "T2, Panx1 channels", "test": "HOS-induced ATP release assay in B16-BL6 cells", "settings": "for inhibition at 100 µM: B16-BL6, read-out: % ATP release inhibition at 100µM (in B16-BL6 cells)"}, "[7]": {"system": "H9c2 cells", "test": "ATP release assay in Panx1-lacking H9c2 cells (specificity)", "assay_type": "cell-based, rat", "settings": "peptides 100 or 12.5 µM, Pbn 2.5 mM, 30 min HOS", "text": "The cardiomyoblast cell line (H9c2) was chosen to assess the specificity of the stapled ^10Panx1 analogues. Panx1 mRNA was not found in undifferentiated H9c2 cells or after differentiation into cardiomyocyte-like cells, while it was readily detected in our positive controls (kidney and liver samples; Supporting Information, Figure S5B). The absence of Panx1 protein expression was confirmed by Western blot analysis in both undifferentiated and differentiated H9c2 cells (Supporting Information, Figure S5C) as well as by immunostaining on H9c2 cells (Supporting Information, Figure S5D). […] Of note, the low concentration of ATP release in H9c2 cells compared to B16-BL6 cells (47 vs 513 nM, respectively, see dotted line in Supporting Information, Figure S5E) cannot be attributed to low cellular content of the metabolite because a high level of ATP was found in the supernatant (1170 nM) when cells were lysed with Triton X-100.\nas §1"}, "[8]": {"test": "Circular dichroism spectroscopy (helicity)", "assay_type": "physicochemical", "settings": "PBS, 20 to 90 °C", "procedure": "Spectra were measured with a JASCO J-715 CD spectropolarimeter equipped with a temperature controller using a 1 mm path length quartz cuvette and a scan rate of […]. The spectra were recorded in the wavelength range of 190–260 nm with a resolution and a bandwidth of 0.5 and 1.0 nm, respectively. The sensitivity and scan rate of the spectrometer were set to 100 mdeg and 50 nm min^–1, respectively. Samples were prepared in phosphate-buffered saline (PBS, 10 mM phosphate, 137 mM sodium chloride, 2.7 mM potassium chloride, pH 7.4, at room temperature) to the final concentration of 100 μM with or without 2,2,2-trifluoroethanol (TFE). CD spectra were averaged over 3–5 scans with the baseline subtracted from analogous conditions as those for the samples and converted to the mean residue ellipticity. Helicity was calculated as previously reported (see the Supporting Information).[52]"}, "[9]": {"test": "Water solubility (observation)", "assay_type": "physicochemical"}}, "note": "Bridge positions count the residues as written; N and C are the ends. Square brackets hold non-standard residues; d marks the D form. Triazole bridges read from a SMILES are 1,4-linked. Peptide text beside a SMILES is read from it. Lys(N3) = [N-]=[N+]=NCCCC[C@H](N)C(=O)O; Pra = C#CC[C@H](N)C(=O)O; Ahx = NCCCCCC(=O)O"}
{"smiles": "CC(=O)N[C@H]1Cc2cn(nn2)CCCC[C@@H](C(=O)N[C@@H](C)C(=O)N[C@@H](Cc2ccccc2)C(=O)N[C@H](C(=O)N[C@@H](CC(=O)O)C(=O)N[C@@H](CO)C(=O)N[C@@H](Cc2ccc(O)cc2)C(N)=O)C(C)C)NC(=O)[C@H](CCC(N)=O)NC(=O)[C@H](CCCNC(=N)N)NC(=O)[C@H](Cc2c[nH]c3ccccc23)NC1=O", "note": "[SBL-PX1-44]", "values": [{"measurement": "fold longer half-life in human plasma compared to ^10Panx1", "setting": "[1]", "value": 30, "unit": "fold"}, {"measurement": "half-life t1/2 in human plasma", "setting": "[1]; 37 °C", "value": "1.04 ± 0.0418", "unit": "h"}, {"measurement": "helicity", "setting": "[2]", "value": 41, "unit": "%"}, {"measurement": "cytotoxicity (extracellular LDH)", "setting": "[3]", "value": "no cytotoxicity"}, {"measurement": "inhibition at 100 µM", "setting": "[4]", "value": 41, "unit": "%"}, {"measurement": "decrease of HOS-induced Yo-Pro-1 uptake", "setting": "[5]", "value": 27, "unit": "%"}, {"measurement": "inhibition at 100 µM", "setting": "[6]", "value": 33, "unit": "%"}]}
{"smiles": "CCCN(CCC)S(=O)(=O)c1ccc(C(=O)O)cc1", "note": "[Pbn, probenecid, reference compound]", "values": [{"measurement": "inhibition of ATP release in H9c2 cells", "setting": "[7]", "value": "No inhibition"}, {"measurement": "cytotoxicity (extracellular LDH)", "setting": "[3]", "value": "no cytotoxicity"}, {"measurement": "reduction of HOS-induced ATP release from EA.hy926 cells", "setting": "[4]; 2.5 mM", "value": "around 35%"}, {"measurement": "inhibition of Yo-Pro-1 uptake", "setting": "[5]; 2.5 mM, 30 min", "value": "final lower level than the basal Tyrode conditions"}, {"measurement": "reduction of HOS-induced ATP release", "setting": "[6]; 2.5 mM, B16-BL6 cells, 30 min HOS", "value": 61, "unit": "%"}]}
{"smiles": "CC(=O)N[C@@H](CO)C(=O)N[C@@H](Cc1c[nH]c2ccccc12)C(=O)N[C@@H](CCCNC(=N)N)C(=O)N[C@@H](CCC(N)=O)C(=O)N[C@@H](C)C(=O)N[C@H]1Cc2cn(nn2)CCCC[C@@H](C(=O)N[C@@H](Cc2ccc(O)cc2)C(N)=O)NC(=O)[C@H](CC(=O)O)NC(=O)[C@H](C(C)C)NC(=O)[C@H](Cc2ccccc2)NC1=O", "note": "[SBL-PX1-42]", "values": [{"measurement": "fold longer half-life in human plasma compared to ^10Panx1", "setting": "[1]", "value": 30, "unit": "fold"}, {"measurement": "half-life t1/2 in human plasma", "setting": "[1]; 37 °C", "value": "1.102 ± 0.00867", "unit": "h"}, {"measurement": "thermal stability of α-helical profile (CD at varying temperatures)", "setting": "[8]", "value": "high thermal stability"}, {"measurement": "helicity", "setting": "[2]", "value": 56, "unit": "%"}, {"measurement": "cytotoxicity (extracellular LDH)", "setting": "[3]", "value": "no cytotoxicity"}, {"measurement": "inhibition at 100 µM", "setting": "[4]", "value": 26, "unit": "%"}, {"measurement": "decrease of HOS-induced Yo-Pro-1 uptake", "setting": "[5]", "value": 26, "unit": "%"}, {"measurement": "inhibition at 100 µM", "setting": "[6]", "value": 39, "unit": "%"}]}
{"smiles": "CC(C)[C@@H]1NC(=O)[C@H](Cc2ccccc2)NC(=O)[C@@H](NC(=O)[C@@H]2CCCCn3cc(nn3)C[C@H](NC(=O)CCCCCNC(=O)[C@@H](N)CCCCN)C(=O)N[C@@H](Cc3c[nH]c4ccccc34)C(=O)N[C@@H](CCCNC(=N)N)C(=O)N[C@@H](CCC(N)=O)C(=O)N2)Cc2cn(nn2)CCCC[C@@H](C(=O)N[C@@H](Cc2ccc(O)cc2)C(N)=O)NC(=O)[C@H](CC(=O)O)NC1=O", "note": "[SBL-PX1-206] (H-K[Ahx][Pra]WRQ[Lys(N3)][Pra]FVD[Lys(N3)]Y-NH2; triazole 3-7, 8-12 (inferred))", "values": [{"measurement": "only identified metabolite (lysine of solubilizing tail cleaved) present in solution", "setting": "[1]; after 24 h, human plasma, 37 °C", "value": "around 80%"}, {"measurement": "water solubility", "setting": "[9]", "value": "water-soluble"}, {"measurement": "helicity", "setting": "[2]", "value": 44, "unit": "%"}, {"measurement": "reduction of HOS-induced ATP release from EA.hy926 cells", "setting": "[4]; 12.5 µM", "value": "about 25%"}, {"measurement": "inhibition at 100 µM", "setting": "[4]", "value": 15, "unit": "%"}]}
